From patent US6872689B1, “Water-dispersible agrochemical compositions” (Agform, Ltd., priority 1999, dated 2005)

Assay type: physicochemical
Protocol: 200 mls water was poured into a jacketed glass vessel and allowed to reach 25 C. A Grant recirculator was used to maintain the temperature at 25 C+/−1 C. A magnetic stirrer at a set speed was used to stir the water. The specified weight of granules was then added to the water and allowed to disperse for 30 seconds before a timer was started. A 2 mls sample was removed using a syringe after 5 minutes and filtered using a 0.45 micron syringe filter. The solution was then analysed to determine the active concentration using a HPLC method.

For `COc1nc(C)nc(NC(=O)NS(=O)(=O)c2ccccc2Cl)n1` [Airmilled technical, Chlorsulfuron], the “solubility in distilled water (in words)” value was “not readily soluble” and the “% active added to water that dissolved after 5 minutes” value (chlorsulfuron, dilution rate 91 mgs a.i./L, distilled water, 25 C) was less than 2%.
